Measured values taken from article PMC5218480 (PLoS ONE, 2017).

Test system: MV-4-11 cells
Experiment: Gene expression microarray analysis (Affymetrix PrimeView) and GSEA
Type: cell-based, human
Parameters: RFU PODN (11730768_x_at) / Fold change /veh PODN (11730768_x_at) / RFU LINC00158 (11744669_a_at) / Fold change /veh LINC00158 (11744669_a_at) / RFU DUSP10 (11751237_a_at) / Fold change /veh DUSP10 (11751237_a_at) / RFU ID3 (11757404_x_at) / Fold change /veh ID3 (11757404_x_at) / RFU PLEKHG5 (11737974_s_at) / Fold change /veh PLEKHG5 (11737974_s_at) / RFU LRRC4B (11730491_at) / Fold change /veh LRRC4B (11730491_at) / RFU GIMAP4 (11747438_a_at) / Fold change /veh GIMAP4 (11747438_a_at) / RFU KRT8 (11758183_x_at) / Fold change /veh KRT8 (11758183_x_at) / RFU CNN1 (11734310_a_at) / Fold change /veh CNN1 (11734310_a_at) / RFU VPS37D (11726825_at) / Fold change /veh VPS37D (11726825_at) / RFU C10orf10 (11716522_x_at) / Fold change /veh C10orf10 (11716522_x_at) / RFU KIR2DL2 /// KIR2DL4 /// KIR2DL5A /// KIR2DL5B /// KIR2DS1 /// KIR2DS2 /// KIR2DS3 /// KIR2DS4 /// KIR3DL3 /// KIR3DL3 /// KIR3DS1 (11738374_at) / Fold change /veh KIR2DL2 /// KIR2DL4 /// KIR2DL5A /// KIR2DL5B /// KIR2DS1 /// KIR2DS2 /// KIR2DS3 /// KIR2DS4 /// KIR3DL3 /// KIR3DL3 /// KIR3DS1 (11738374_at) / RFU C1QL1 (11718748_at) / Fold change /veh C1QL1 (11718748_at) / RFU TMPRSS4 (11747572_a_at) / Fold change /veh TMPRSS4 (11747572_a_at) / RFU HAMP (11756126_x_at) / Fold change /veh HAMP (11756126_x_at) / RFU RNFT2 (11725882_a_at) / Fold change /veh RNFT2 (11725882_a_at) / RFU NR4A2 (11747474_a_at) / Fold change /veh NR4A2 (11747474_a_at) / RFU ABCC12 (11746883_a_at) / Fold change /veh ABCC12 (11746883_a_at) / RFU TMEM136 (11760407_x_at) / Fold change /veh TMEM136 (11760407_x_at) / RFU CLDN22 /// WWC2 (11732394_at) / Fold change /veh CLDN22 /// WWC2 (11732394_at) / RFU HLA-DPB1 (11760878_x_at) / Fold change /veh HLA-DPB1 (11760878_x_at) / RFU SPINT1 (11716480_a_at) / Fold change /veh SPINT1 (11716480_a_at) / RFU GAP43 (11754022_s_at) / Fold change /veh GAP43 (11754022_s_at) / RFU A4GNT (11735810_at) / Fold change /veh A4GNT (11735810_at) / RFU PRB3 (11715151_x_at) / Fold change /veh PRB3 (11715151_x_at) / RFU TUBB4B (11761932_at) / Fold change /veh TUBB4B (11761932_at) / RFU CAPN14 (11732068_a_at) / Fold change /veh CAPN14 (11732068_a_at) / RFU TMCC2 (11721928_a_at) / Fold change /veh TMCC2 (11721928_a_at) / RFU IRGQ (11745062_a_at) / Fold change /veh IRGQ (11745062_a_at) / RFU FAM174B (11720279_a_at) / Fold change /veh FAM174B (11720279_a_at) / RFU TMPRSS4 (11748680_a_at) / Fold change /veh TMPRSS4 (11748680_a_at) / RFU FAM212B (11763350_a_at) / Fold change /veh FAM212B (11763350_a_at) / RFU PLEKHG5 (11743358_a_at) / Fold change /veh PLEKHG5 (11743358_a_at) / RFU ZSCAN30 (11745921_a_at) / Fold change /veh ZSCAN30 (11745921_a_at) / RFU CMKLR1 (11741424_a_at) / Fold change /veh CMKLR1 (11741424_a_at) / RFU LOC101060620 /// MAPK8IP1 (11723275_at) / Fold change /veh LOC101060620 /// MAPK8IP1 (11723275_at) / RFU SPTSSB (11747773_x_at) / Fold change /veh SPTSSB (11747773_x_at) / RFU PRSS12 (11739890_at) / Fold change /veh PRSS12 (11739890_at) / RFU BIN1 (11741810_x_at) / Fold change /veh BIN1 (11741810_x_at) / RFU WNT11 (11732464_a_at) / Fold change /veh WNT11 (11732464_a_at) / RFU C10orf10 (11716521_a_at) / Fold change /veh C10orf10 (11716521_a_at) / RFU C5orf56 (11738089_at) / Fold change /veh C5orf56 (11738089_at) / RFU CYB561 (11721691_x_at) / Fold change /veh CYB561 (11721691_x_at) / RFU ANKRD19P (11752326_a_at) / Fold change /veh ANKRD19P (11752326_a_at) / RFU OR2T12 /// OR2T33 /// OR2T8 (11738714_s_at) / Fold change /veh OR2T12 /// OR2T33 /// OR2T8 (11738714_s_at) / RFU VCAN (11748164_a_at) / Fold change /veh VCAN (11748164_a_at) / RFU JSRP1 (11732532_at) / Fold change /veh JSRP1 (11732532_at) / RFU KRTAP10-11 (11738290_x_at) / Fold change /veh KRTAP10-11 (11738290_x_at) / RFU MYO3A (11730013_a_at) / Fold change /veh MYO3A (11730013_a_at) / RFU EBF3 (11725865_a_at) / Fold change /veh EBF3 (11725865_a_at) / RFU CAMK2N1 (11719241_x_at) / Fold change /veh CAMK2N1 (11719241_x_at) / RFU C5orf56 (11738088_a_at) / Fold change /veh C5orf56 (11738088_a_at) / RFU OLFML3 (11715873_a_at) / Fold change /veh OLFML3 (11715873_a_at) / RFU LOC100653217 /// NTM (11731650_a_at) / Fold change /veh LOC100653217 /// NTM (11731650_a_at) / RFU MAPK11 (11762145_a_at) / Fold change /veh MAPK11 (11762145_a_at) / RFU FIZ1 (11724087_x_at) / Fold change /veh FIZ1 (11724087_x_at) / RFU OASL (11726364_x_at) / Fold change /veh OASL (11726364_x_at) / RFU SOX15 (11748057_x_at) / Fold change /veh SOX15 (11748057_x_at) / RFU CD79A (11719716_a_at) / Fold change /veh CD79A (11719716_a_at) / RFU HIST1H1D (11736915_at) / Fold change /veh HIST1H1D (11736915_at) / RFU CASKIN2 (11723855_a_at) / Fold change /veh CASKIN2 (11723855_a_at) / RFU LOC730098 (11760151_x_at) / Fold change /veh LOC730098 (11760151_x_at) / RFU OR4N2 (11742367_at) / Fold change /veh OR4N2 (11742367_at) / RFU PRRT2 (11749266_a_at) / Fold change /veh PRRT2 (11749266_a_at) / RFU SNX32 (11753110_a_at) / Fold change /veh SNX32 (11753110_a_at) / RFU CDHR5 (11726645_a_at) / Fold change /veh CDHR5 (11726645_a_at) / RFU RCAN1 (11760418_a_at) / Fold change /veh RCAN1 (11760418_a_at) / RFU FAM167A (11723789_a_at) / Fold change /veh FAM167A (11723789_a_at) / RFU FAM26E (11764081_at) / Fold change /veh FAM26E (11764081_at) / RFU ISYNA1 (11749810_s_at) / Fold change /veh ISYNA1 (11749810_s_at) / RFU ACY1 (11761880_at) / Fold change /veh ACY1 (11761880_at) / RFU 11764098_at / Fold change /veh 11764098_at / RFU SAMD14 (11745864_x_at) / Fold change /veh SAMD14 (11745864_x_at) / RFU NPB (11741838_a_at) / Fold change /veh NPB (11741838_a_at) / RFU TMPRSS6 (11731388_a_at) / Fold change /veh TMPRSS6 (11731388_a_at) / RFU KRTAP10-2 (11738614_at) / Fold change /veh KRTAP10-2 (11738614_at) / RFU ARHGAP8 /// PRR5-ARHGAP8 (11727945_x_at) / Fold change /veh ARHGAP8 /// PRR5-ARHGAP8 (11727945_x_at) / RFU KRTAP5-7 /// NADSYN1 (11734609_at) / Fold change /veh KRTAP5-7 /// NADSYN1 (11734609_at) / RFU RASL12 (11751679_a_at) / Fold change /veh RASL12 (11751679_a_at) / RFU CDKN2B (11736163_a_at) / Fold change /veh CDKN2B (11736163_a_at) / RFU PRF1 (11729649_at) / Fold change /veh PRF1 (11729649_at) / RFU, ZNF638 /// ZNF638-IT1 / Fold change vs veh, ZNF638 /// ZNF638-IT1 / RFU, PANK3 / Fold change vs veh, PANK3 / RFU, SH3YL1 / Fold change vs veh, SH3YL1 / RFU, ZEB2 / Fold change vs veh, ZEB2 / RFU, NRIP1 / Fold change vs veh, NRIP1 / RFU, PTTG1IP / Fold change vs veh, PTTG1IP / RFU, CAPN2 / Fold change vs veh, CAPN2 / RFU, MED14 / Fold change vs veh, MED14 / RFU, SNORA58 / Fold change vs veh, SNORA58 / RFU, C1orf63 / Fold change vs veh, C1orf63 / RFU, LRRFIP1 / Fold change vs veh, LRRFIP1 / RFU, NDUFAF7 / Fold change vs veh, NDUFAF7 / RFU, SLC12A2 / Fold change vs veh, SLC12A2 / RFU, IBTK / Fold change vs veh, IBTK / RFU, ESF1 / Fold change vs veh, ESF1 / Fold change vs veh, TMEM50B / RFU, TAOK1 / Fold change vs veh, TAOK1 / RFU, ACBD3 / Fold change vs veh, ACBD3 / RFU, TMA16 / Fold change vs veh, TMA16 / RFU, RWDD3 / Fold change vs veh, RWDD3 / RFU, BCAT1 / Fold change vs veh, BCAT1 / RFU, EDEM3 / Fold change vs veh, EDEM3 / RFU, TMEM33 / Fold change vs veh, TMEM33 / RFU, WDR75 / Fold change vs veh, WDR75 / RFU, AHCTF1 / Fold change vs veh, AHCTF1 / RFU, TFRC / Fold change vs veh, TFRC / RFU, ZDHHC17 / Fold change vs veh, ZDHHC17 / RFU, NOM1 / Fold change vs veh, NOM1 / RFU, ARL8B / Fold change vs veh, ARL8B / RFU, ZBTB11 / Fold change vs veh, ZBTB11 / RFU, TAMM41 / Fold change vs veh, TAMM41 / RFU, KIAA1704 /// LOC100996395 / Fold change vs veh, KIAA1704 /// LOC100996395 / RFU, ING1 / Fold change vs veh, ING1 / RFU, TRMT61B / Fold change vs veh, TRMT61B / RFU, FUBP3 / Fold change vs veh, FUBP3 / RFU, TP53 / Fold change vs veh, TP53 / RFU, TNKS2 / Fold change vs veh, TNKS2 / RFU, ZFP14 / Fold change vs veh, ZFP14 / RFU, ACTR2 / Fold change vs veh, ACTR2 / RFU, PPP3R1 / Fold change vs veh, PPP3R1 / RFU, PIK3R1 / Fold change vs veh, PIK3R1 / RFU, HNRNPA1 / Fold change vs veh, HNRNPA1 / RFU, RNF170 / Fold change vs veh, RNF170 / RFU, ZNF28 / Fold change vs veh, ZNF28 / RFU, RNGTT / Fold change vs veh, RNGTT / RFU, OGT / Fold change vs veh, OGT / RFU, BRD1 / Fold change vs veh, BRD1 / RFU, MARS / Fold change vs veh, MARS / RFU, ZNF655 / Fold change vs veh, ZNF655 / RFU, FAHD1 / Fold change vs veh, FAHD1 / RFU, BDP1 / Fold change vs veh, BDP1 / RFU, LRRCC1 / Fold change vs veh, LRRCC1 / RFU, ARID1A / Fold change vs veh, ARID1A / RFU, ZNF146 / Fold change vs veh, ZNF146 / RFU, ZNF330 / Fold change vs veh, ZNF330 / RFU, GPN3 / Fold change vs veh, GPN3 / RFU, C9orf123 / Fold change vs veh, C9orf123 / RFU, N4BP2L2 / Fold change vs veh, N4BP2L2 / RFU, ARFIP1 / Fold change vs veh, ARFIP1 / RFU, FAM179B / Fold change vs veh, FAM179B / RFU, BCL10 / Fold change vs veh, BCL10 / RFU, UHRF1BP1L / Fold change vs veh, UHRF1BP1L / RFU, BET1 / Fold change vs veh, BET1 / RFU, CNOT2 / Fold change vs veh, CNOT2 / RFU, ZNF268 / Fold change vs veh, ZNF268 / Fold change vs veh, ZNF507 / RFU, DGCR2 / Fold change vs veh, DGCR2 / RFU, WDSUB1 / Fold change vs veh, WDSUB1 / Fold change vs veh, HSP90B1 /// MIR3652 / RFU, ADSS / Fold change vs veh, ADSS / RFU, GK / Fold change vs veh, GK / RFU, ZNF148 / Fold change vs veh, ZNF148 / RFU, TAF9 / Fold change vs veh, TAF9 / RFU, SLC1A5 / Fold change vs veh, SLC1A5 / RFU, SLMO2 / Fold change vs veh, SLMO2 / RFU, ABCC4 / Fold change vs veh, ABCC4 / RFU, LOC101060439 /// RAP1B / Fold change vs veh, LOC101060439 /// RAP1B / RFU, RFX7 / Fold change vs veh, RFX7 / RFU, GTPBP10 / Fold change vs veh, GTPBP10 / RFU, CNEP1R1 / Fold change vs veh, CNEP1R1 / RFU, BIVM-ERCC5 /// ERCC5 / Fold change vs veh, BIVM-ERCC5 /// ERCC5 / RFU, ILF3 / Fold change vs veh, ILF3 / RFU 11762660_at / Fold change /veh 11762660_at / RFU VCAN (11757783_s_at) / Fold change /veh VCAN (11757783_s_at) / RFU DDX43 (11728927_at) / Fold change /veh DDX43 (11728927_at) / RFU KRT8 (11758188_x_at) / Fold change /veh KRT8 (11758188_x_at) / RFU NKD1 (11759106_at) / Fold change /veh NKD1 (11759106_at) / RFU SRD5A1 (11742802_a_at) / Fold change /veh SRD5A1 (11742802_a_at) / RFU TPSAB1 /// TPSB2 (11721975_s_at) / Fold change /veh TPSAB1 /// TPSB2 (11721975_s_at) / RFU GSTM3 (11746129_a_at) / Fold change /veh GSTM3 (11746129_a_at) / RFU IL23R (11737362_x_at) / Fold change /veh IL23R (11737362_x_at) / RFU TMEM51 (11727254_a_at) / Fold change /veh TMEM51 (11727254_a_at) / RFU PIWIL2 (11732686_x_at) / Fold change /veh PIWIL2 (11732686_x_at) / RFU ORM1 (11744905_x_at) / Fold change /veh ORM1 (11744905_x_at) / RFU CCDC152 (11743942_at) / Fold change /veh CCDC152 (11743942_at) / RFU ECM1 (11717891_a_at) / Fold change /veh ECM1 (11717891_a_at) / RFU IL23R (11748794_a_at) / Fold change /veh IL23R (11748794_a_at) / RFU TNFAIP8L3 (11732012_x_at) / Fold change /veh TNFAIP8L3 (11732012_x_at) / RFU MBOAT4 (11741988_at) / Fold change /veh MBOAT4 (11741988_at) / RFU 11764193_at / Fold change /veh 11764193_at / RFU TMEM53 (11763286_at) / Fold change /veh TMEM53 (11763286_at) / RFU MAGEB2 (11727129_at) / Fold change /veh MAGEB2 (11727129_at) / RFU TMEM200A (11744735_a_at) / Fold change /veh TMEM200A (11744735_a_at) / RFU CCDC152 (11751479_a_at) / Fold change /veh CCDC152 (11751479_a_at) / RFU FAM211A (11726209_a_at) / Fold change /veh FAM211A (11726209_a_at) / RFU RGS16 (11746705_a_at) / Fold change /veh RGS16 (11746705_a_at) / RFU VCAN (11755009_s_at) / Fold change /veh VCAN (11755009_s_at) / RFU RHOB (11743442_s_at) / Fold change /veh RHOB (11743442_s_at) / RFU RGS16 (11720943_a_at) / Fold change /veh RGS16 (11720943_a_at) / RFU RGS16 (11720944_at) / Fold change /veh RGS16 (11720944_at) / RFU, VPS4B / Fold change vs veh, VPS4B / RFU, CREB1 / Fold change vs veh, CREB1 / RFU, DNAJC13 / Fold change vs veh, DNAJC13 / RFU, GNAQ / Fold change vs veh, GNAQ / RFU, CDK5R1 / Fold change vs veh, CDK5R1 / RFU, ZRANB3 / Fold change vs veh, ZRANB3 / RFU, CUL4A / Fold change vs veh, CUL4A / RFU, CCNY / Fold change vs veh, CCNY / RFU, UFL1 / Fold change vs veh, UFL1 / RFU, COG3 / Fold change vs veh, COG3 / RFU, DIAPH2 / Fold change vs veh, DIAPH2 / RFU, SKA2 / Fold change vs veh, SKA2 / RFU, AFF3 / Fold change vs veh, AFF3 / RFU, LMF1 / Fold change vs veh, LMF1 / RFU, IPO11 / Fold change vs veh, IPO11 / RFU, DFFB / Fold change vs veh, DFFB / RFU, FOXP1 / Fold change vs veh, FOXP1 / RFU, CARD8 / Fold change vs veh, CARD8 / RFU, STRN3 / Fold change vs veh, STRN3 / RFU, ADK / Fold change vs veh, ADK / RFU, RASSF2 / Fold change vs veh, RASSF2 / RFU, WIPF1 / Fold change vs veh, WIPF1 / RFU, LARP1B / Fold change vs veh, LARP1B / RFU, RASA1 / Fold change vs veh, RASA1 / RFU, RB1 / Fold change vs veh, RB1 / RFU, PPFIA1 / Fold change vs veh, PPFIA1 / RFU, MAT2A / Fold change vs veh, MAT2A / RFU, CCT5 / Fold change vs veh, CCT5 / RFU, WDR92 / Fold change vs veh, WDR92 / RFU, CUX1 / Fold change vs veh, CUX1 / RFU, TTC7A / Fold change vs veh, TTC7A / RFU, TMEM135 / Fold change vs veh, TMEM135 / RFU, DEPTOR / Fold change vs veh, DEPTOR / RFU, CPM / Fold change vs veh, CPM / RFU, DNAJB6 / Fold change vs veh, DNAJB6 / RFU, CACNA2D3 / Fold change vs veh, CACNA2D3 / RFU, DTX4 / Fold change vs veh, DTX4 / RFU, TFCP2 / Fold change vs veh, TFCP2 / RFU, GMCL1 /// GMCL1P1 / Fold change vs veh, GMCL1 /// GMCL1P1 / RFU, AEBP2 / Fold change vs veh, AEBP2 / RFU, SNHG1 /// SNORD22 /// SNORD25 /// SNORD26 /// SNORD27 /// SNORD28 /// SNORD29 /// SNORD31 / Fold change vs veh, SNHG1 /// SNORD22 /// SNORD25 /// SNORD26 /// SNORD27 /// SNORD28 /// SNORD29 /// SNORD31 / Fold change (Aza/veh), C12orf56 (ProbeSet 11735607_a_at) / Fold change (ACY-1035/veh), C12orf56 (ProbeSet 11735607_a_at) / Fold change (Aza/veh), FGFR1OP (ProbeSet 11751329_s_at) / Fold change (ACY-1035/veh), FGFR1OP (ProbeSet 11751329_s_at) / Fold change (Aza/veh), VPS36 (ProbeSet 11739960_a_at) / Fold change (ACY-1035/veh), VPS36 (ProbeSet 11739960_a_at) / RFU SYPL1 (11715823_x_at) / Fold change /veh SYPL1 (11715823_x_at) / RFU IGFBP7 (11715501_s_at) / Fold change /veh IGFBP7 (11715501_s_at) / RFU REEP3 (11722064_at) / Fold change /veh REEP3 (11722064_at) / RFU IGLL1 (11728026_x_at) / Fold change /veh IGLL1 (11728026_x_at): dose or concentration left out as unconfirmed
Settings: ProbeSet 11718701_a_at; LIST B

Nc1ncn([C@@H]2O[C@H](CO)[C@@H](O)[C@H]2O)c(=O)n1 [azacitidine]
RFU, ARFIP1: 68.44 RFU
